Laboratory results from ChEMBL document CHEMBL3046762, “Synthesis and biological evaluation of 2-amino-5-sulfanyl-1,3,4-thiadiazole derivatives as antidepressant, anxiolytics and anticonvulsant agents” (2011).
Active and inactive are the calls of the source. No cut-off for these calls is given here.

Tests used:
[1] = tested on: Rattus norvegicus; assay: Anticonvulsant activity in Rattus norvegicus Wistar albino (rat) assessed as inhibition of pentyleneterazole-induced clonic convulsion measured as onset of convulsion at 30 mg/kg, ip pretreated 30 min prior to pentylenetetrazole challenge (reference value: 48.25 +/- 0.01 sec); format: functional; settings: route intraperitoneal
[2] = tested on: Rattus norvegicus; assay: Anticonvulsant activity in Rattus norvegicus Wistar albino (rat) assessed as reduction in pentyleneterazole-induced mortality at 30 mg/kg, ip pretreated 30 min prior to pentylenetetrazole challenge; format: functional, organism-based; design: dose 30 mg/kg
[3] = tested on: Mus musculus; assay: Anxiolytic activity in Mus musculus Swiss (mouse) assessed as time spent in light chamber at 30 mg/kg, ip measured after 30 min by light and dark model test (reference value: 130.2 +/- 0.01 sec); format: functional; settings: route intraperitoneal
[4] = tested on: Rattus norvegicus; assay: Anticonvulsant activity in Rattus norvegicus Wistar albino (rat) assessed as duration of tonic hind limb extensor at 30 mg/kg, ip measured after 30 min by maximal electroshock-induced convulsion test (reference value: 15.71 +/- 0.01 sec); format: functional, Hindlimb; settings: route intraperitoneal
[5] = tested on: Rattus norvegicus; assay: Anticonvulsant activity in Rattus norvegicus Wistar albino (rat) assessed as protection against maximal electroshock-induced convulsion at 30 mg/kg, ip measured after 30 min; format: functional; settings: route intraperitoneal
[6] = tested on: Mus musculus; assay: Anxiolytic activity in Mus musculus balb/cj (mouse) assessed as preference to open arm at 30 mg/kg, ip measured after 30 min by elevated pluze maze test; format: functional; settings: route intraperitoneal
[7] = tested on: Mus musculus; assay: Anxiolytic activity in Mus musculus balb/cj (mouse) assessed as time spent in open arm at 30 mg/kg, ip measured after 30 min by elevated pluze maze test (reference value: 12.25 +/- 0.02 sec); format: functional; settings: route intraperitoneal
[8] = tested on: Mus musculus; assay: Antidepressant activity in Mus musculus (mouse) assessed as increase in mobile phase at 30 mg/kg, ip measured after 30 min by tail suspension test; format: functional; settings: route intraperitoneal
[9] = tested on: Mus musculus; assay: Antidepressant activity in Mus musculus (mouse) assessed as decrease in immobility at 30 mg/kg, ip measured after 30 min by despair swim test; format: functional; settings: 0.5 h, route intraperitoneal
[10] = tested on: Rattus norvegicus; assay: Anticonvulsant activity in Rattus norvegicus Wistar albino (rat) assessed as reduction in pentyleneterazole-induced mortality at 4 mg/kg, ip pretreated 30 min prior to pentylenetetrazole challenge; format: functional, organism-based; design: dose 4 mg/kg
[11] = tested on: Mus musculus; assay: Anxiolytic activity in Mus musculus balb/cj (mouse) assessed as time spent in open arm at 2 mg/kg, ip measured after 30 min by elevated pluze maze test (reference value: 12.25 +/- 0.02 sec); format: functional; settings: route intraperitoneal
[12] = tested on: Mus musculus; assay: Antidepressant activity in Mus musculus (mouse) assessed as decrease in immobility at 15 mg/kg, ip measured after 30 min by despair swim test; settings: 0.5 h, read-out: INH
[13] = tested on: Rattus norvegicus; assay: Anticonvulsant activity in Rattus norvegicus Wistar albino (rat) assessed as duration of tonic hind limb extensor at 25 mg/kg, ip measured after 30 min by maximal electroshock-induced convulsion test; format: functional, organism-based; design: dose 25 mg/kg; settings: Hindlimb
[14] = tested on: Rattus norvegicus; assay: Anticonvulsant activity in Rattus norvegicus Wistar albino (rat) assessed as protection against maximal electroshock-induced convulsion at 25 mg/kg, ip measured after 30 min; format: functional; settings: route intraperitoneal

Row | SMILES | Time [1] [s] | Activity [2] | Time [3] [s] | Time [4] [s] | Activity [5] [%] | Activity [6] [%] | Time [7] [s] | Activity [8] [%] | inhibition in vivo at 30 mg/kg [9] [%] | Activity [10] | Time [11] [s] | inhibition in vivo at 15 mg/kg [12] [%] | Activity [13] | Activity [14] [%]
1 | NS(=O)(=O)c1ccc(Sc2nnc(Nc3ccc(F)cc3)s2)cc1 | 171.25 | Active | 185.9 | 4.5 | 66.66 | 18.01 | 46.31 | 40.31 | 50.5 | – | – | – | – | –
2 | O=S(=O)(Cl)c1ccc(Sc2nnc(Nc3ccc(Br)cc3)s2)cc1 | 70.25 | Active | 159.3 | 7.63 | 0 | 9.25 | 25.2 | 20.57 | 30.7 | – | – | – | – | –
3 | CN1C(=O)CN=C(c2ccccc2)c2cc(Cl)ccc21 | – | – | – | – | – | – | – | – | – | Active | – | – | – | –
4 | Cc1ccc(Nc2nnc(Sc3ccc(S(=O)(=O)Cl)cc3)s2)cc1 | 101.26 | Active | 169.25 | 8.01 | 16.66 | 7.58 | 22.2 | 15.19 | 29.2 | – | – | – | – | –
5 | NS(=O)(=O)c1ccc(Sc2nnc(Nc3ccc(C(Cl)(Cl)Cl)cc3)s2)cc1 | 106.7 | Active | 162 | 6.96 | 16.66 | 7.85 | 24.2 | 16.39 | 25 | – | – | – | – | –
6 | NS(=O)(=O)c1ccc(Sc2nnc(Nc3ccc(Cl)cc3)s2)cc1 | 151.3 | Active | 178.2 | 5.17 | 50 | 16.35 | 45.51 | 33.33 | 29.2 | – | – | – | – | –
7 | O=S(=O)(Cl)c1ccc(Sc2nnc(Nc3ccc(Cl)cc3)s2)cc1 | 63.6 | Active | 151.5 | 7.55 | 16.66 | 9.75 | 30.01 | 15.68 | 23.9 | – | – | – | – | –
8 | O=S(=O)(Cl)c1ccc(Sc2nnc(Nc3ccc(C(F)(F)F)cc3)s2)cc1 | 180.25 | Active | 192 | 4.42 | 66.66 | 18.92 | 47.92 | 45.97 | 53.5 | – | – | – | – | –
9 | NS(=O)(=O)c1ccc(Sc2nnc(Nc3ccc(Br)cc3)s2)cc1 | 71.9 | Active | 162.3 | 8.01 | 33.33 | 8.01 | 29.26 | 15.68 | 27.2 | – | – | – | – | –
10 | O=S(=O)(Cl)c1ccc(Sc2nnc(Nc3ccc(F)cc3)s2)cc1 | 101.26 | Active | 166.3 | 8.25 | 0 | 10.54 | 25.26 | 21.51 | 22.8 | – | – | – | – | –
11 | O=S(=O)(Cl)c1ccc(Nc2nnc(Sc3ccc(S(=O)(=O)Cl)cc3)s2)cc1 | 125.2 | Active | 172.5 | 8.5 | 0 | 7.9 | 27.63 | 10.09 | 25.9 | – | – | – | – | –
12 | NS(=O)(=O)c1ccc(Nc2nnc(Sc3ccc(S(N)(=O)=O)cc3)s2)cc1 | – | – | 133.2 | 8.25 | 0 | 6.65 | 26.64 | 10.06 | 25.2 | – | – | – | – | –
13 | NS(=O)(=O)c1ccc(Sc2nnc(Nc3ccc(S(=O)(=O)Cl)cc3)s2)cc1 | 175.2 | Active | 180.25 | 4.69 | 50 | 17.2 | 45.93 | 40.58 | 50.4 | – | – | – | – | –
14 | NS(=O)(=O)c1ccc(Sc2nnc(Nc3ccc(C(F)(F)F)cc3)s2)cc1 | 126.2 | Active | 151.26 | 7.37 | 33.33 | 8.92 | 23.72 | 31.29 | 27.9 | – | – | – | – | –
15 | O=S(=O)(Cl)c1ccc(Sc2nnc(Nc3ccc(C(Cl)(Cl)Cl)cc3)s2)cc1 | 99.9 | Active | 170.5 | 7.01 | 16.66 | 8.75 | 26.2 | 19.16 | 30.2 | – | – | – | – | –
16 | CNCCC(Oc1ccc(C(F)(F)F)cc1)c1ccccc1.Cl (stereo not drawn) [FLUOXETINE HYDROCHLORIDE] | – | – | – | – | – | – | – | – | – | – | 60.01 | 58.6 | – | –
17 | Cc1ccc(Nc2nnc(Sc3ccc(S(N)(=O)=O)cc3)s2)cc1 | 170.26 | Active | 190.25 | 4.52 | 50 | 18.25 | 45.69 | 42.21 | 51.5 | – | – | – | – | –
18 | O=C1NC(=O)C(c2ccccc2)(c2ccccc2)N1 [PHENYTOIN] | – | – | – | – | – | – | – | – | – | – | – | – | Active | 100
